Six compounds from patent publication US4740499A, “Method of enhancing the bioactivity of atrial peptides” (Monsanto Company, priority 1986, dated 1988) can be followed below.

By share remaining is commonly meant what is left of the initial amount, in per cent. Read a low share remaining as more turnover.

Where a SMILES comes first, the peptide text is derived from it. Bridges are numbered along the chain shown (N, C = ends).

Data set [1] relates to rabbit kidney brush border membranes (RBBM). The data set is described as follows: physchem. In kind it is biochemical. The following applies: for Effect of inhibitor on atrial peptide bioactivity during incubation with renal brush border membranes: nanomolar (low) concentrations of inhibitor. As for the experimental part: (§1) The kelatorphan was prepared according to the method described for compound 13 by Fournie-Saluski et al., J. Med. Chem. 28, 1158-1169 (1985). The following procedure was performed at 4° C. Rabbit kidneys were obtained fresh and were perfused with buffer A (containing 5 mM Tris, pH 7.5, 0.25 M sucrose, 3 mM MgCl2 and 1 mM EDTA) to remove the blood. (EDTA=ethylenediaminetetraacetic acid.) The kidneys were minced, homogenized in 5 volumes of ice-cold buffer A with a Brinkmann Polytron homogenizer and filtered through two layers of cheesecloth. The filtrate was centrifuged at 5,000×g for 20 min, the pellet was discarded and the supernatant was centrifuged at 15,000×g for 20 min. The supernatant was retained and then centrifuged at 100,000×g for 90 min. The pellet was resuspended in 50 mM Tris, pH 7.5, and the suspension was centrifuged at 100,000×g for 90 min. The washed pellet was resuspended in 50 mM Tris, pH 7.5, to give a final protein concentration of 4 mg/ml using the protein assay of Bradford, Anal. Biochem. 72, 248-254 (1976). The membrane preparation was assayed for aminopeptidase and alkaline phosphatase activities which are the marker enzymes for the kidney brush border. See Inui et al., Biochim. Biophys. Acta 647, 150-154 (1981). The final membrane preparation was enriched 8-fold in alkaline phosphatase activity, and 11-fold in aminopeptidase activity, compared to the homogenate. Renal brush border membranes (10-20 μg) were preincubated for 15 min at 25° C. in a solution containing the inhibitor and 50 mM Tris, pH 7.5. […] Incubations were for 60 min at 25° C. and were terminated by removing the membranes by filtration using Gelman GA-6 filters. The filtrates were immediately frozen on dry ice and were stable for 1 week when stored at -80° C. Samples containing the peptide degradation products were resolved by C18 reversed phase high pressure liquid chromatography (HPLC). The frozen samples were thawed immediately before injection onto a Vydac C18 column (4.6 mm I.D.×25 cm; 5 micron/300 Å) equilibrated with water containing 0.05% trifluoracetic acid (TFA). Peptide fragments and starting material were separated on a linear gradient of 0-35% acetonitrile also containing 0.05% TFA. Both the gradient and the flow rate (1 ml/min) were maintained by a Waters HPLC system consisting of two Model 510 pumps connected to an Automated Gradient Controller. Column effluent was monitored at 220 nm by a Waters Model 481 spectrophotometer, and the amount of atrial peptide material and peptide fragments were measured via a Hewlett-Packard Model […] integrator. […] Therefore, in those cases where the N-terminal serine was removed, the total amount of biologically active material remaining at the end of the incubation was taken as the % starting material remaining plus % des […] -AP-I or des […] -AP-III (as appropriate), as calculated from the peak areas of the individual peptides on HPLC.

Data set [2] is described as follows: physchem. In kind it is biochemical, rabbit. The following applies: pH 7.5, Peak area as % Initial AP: AP. As for the experimental part:
as §1

The nature of data set [3]: Plasma AP-III levels (radioimmunoassay) in rats, first test: constant AP-III infusion, varied thiorphan dose. It is filed as in vivo, rat. To be noted: male, Sprague-Dawley, rat, in vivo, iv. As for the experimental part: (§2) Plasma levels of atriopeptin III (AP-III) were tested in rats in which the AP-III was infused intravenously both with and without contemporaneous administration of thiorphan.
(§3) Male Sprague-Dawley rats, 240-310 g, were used for all tests. The rats were housed in the test facilities for at least 6 days before they were used.
(§4) Cannulas were made of PE-10 (polyethylene) tubing inserted and glued into a piece of PE-50 tubing. Rats were anesthetized with pentobarbital (50 mg/kg i.p.) and had cannulas inserted into the left femoral vein and artery. Both were inserted four cm into the vessels and tied securely. They were then tunnelled under the skin and brought out between the rat's shoulder blades and then cut so that only 1-2 cm was externalized. Cannulas were glued in place using Superglue and filled with saline containing 100 units heparin/ml. Rats were allowed to wake up and then housed individually with food and water ad libitum.
(§5) Two days after surgery, the rats were weighed and put into restraining cages that allowed limited movement. […] Blood was collected from the femoral artery and replaced with saline containing 10 units heparin/ml. In most tests, 0.3 ml blood was taken, except that when basal AP-III levels were measured 0.4 ml blood was withdrawn. Blood was immediately centrifuged in a microcentrifuge for one minute and plasma was frozen in plastic tubes placed on dry ice. Samples were kept in a -80° C. freezer until they were analyzed.
(§6) Thiorphan was dissolved in a minimal amount of 0.1 N NaOH to produce the sodium salt. The solution was immediately neutralized using 0.5 N HCl and diluted to a final concentration with 0.9% saline.
After taking the second sample, thiorphan was given as a bolus injection into the femoral artery and the line was flushed with 0.2 ml saline. The doses of thiorphan were 1,3,10 and 30 mg/kg; one set of rats received only a saline bolus as a control. Blood was taken 10,20,30 and 60 minutes after the injection of thiorphan. AP-III was infused during the entire experiment for a total of 90 minutes.
(§7) Plasma AP-III levels were analyzed by radioimmunoassay using a second antibody to separate free and bound AP-III. The label was ^125 I-AP-III that was purified by HPLC after iodination. Conditions were set so that 35-40% of the total counts were precipitated. The incubation medium contained sodium phosphate, pH 7.4, 0.25% bovine serum albumin (BSA), 0.5% sodium azide and 3% PEG-8000 (polyethylene glycol). The primary antibody was from a guinea pig immunized against AP-III. The incubations were done overnight at 6° C. The next day, 2 ml of 0.125% BSA was added to each tube and then they were centrifuged for 45 min at 3000 rpm. They were decanted and the radioactivity was counted in a Micromedic gamma counter. The standard curve contained 10 to 600 pg AP-III/tube. Only the linear portion of the curve was used for quantification. Plasma samples were diluted so that the AP-III concentrations were in the range of the standard curve.

Data set [4] in a line: Plasma AP-III levels (radioimmunoassay) in rats, second test: varied AP-III infusion rate, constant thiorphan dose. In kind it is in vivo, rat. To be noted: male, Sprague-Dawley, rat, in vivo, iv. As for the experimental part:
as §2, §3, §4, §5, §6
In the second test, the level of thiorphan was kept constant at 3 mg/kg and the rate of AP-III infusion was varied. AP-III was infused into the femoral vein for a total of 60 minutes at a rate of 150,450 and 900 ng/kg/min; another group of rats received only an infusion of dextrose/saline to determine if thiorphan affected the basal levels of AP-III. Blood was taken at 15 and 30 minutes after the start of the AP-III infusion to check for a steady state AP-III plasma concentration. After the 30 min sample, thiorphan (3 mg/kg) was injected arterially and additional blood samples were taken 15 and 30 min later (45 and 60 minutes after the start of the AP-III infusion).
as §7

Where [5] appears, read: (c) 40 μM AP-III, 20 μg RBBM, 100 nM inhibitor, 60 min, 25° C.
[6] abbreviates: rabbit, kidney or brush border membranes.

For the compound `C[C@H](NC(=O)[C@@H](CC(=O)NO)Cc1ccccc1)C(=O)O` [(R,S) kelatorphan], in data set [1] (setting [5]), the “Peak area as % Initial AP: AP” value was found to be 16.5%, the “Peak area as % Initial AP: AP + des Ser^1 -AP” value is 31.4% and the “Peak area as % Initial AP: des Ser^1 -AP” value worked out at 14.9%. In addition, the “Effect of inhibitor on atrial peptide bioactivity during incubation with renal brush border membranes” value (“Effect of inhibitor” below) in data set [1] is reported as “inhibit the loss of atrial peptide bioactivity”.

With `C[C@H](NC(=O)[C@@H](CC(=O)NO)Cc1ccccc1)C(=O)O` [kelatorphan, [(R)-3-(N-hydroxy)carboxamido-2-benzylpropanoyl]-L-alanine], the “Effect of inhibitor” value in data set [1] is “substantially prolonged or enhanced”.

Turning to `CC[C@H](C)[C@@H]1NC(=O)[C@H](CCCNC(=N)N)NC(=O)[C@H](CC(=O)O)NC(=O)[C@H](CCSC)NC(=O)[C@H](CCCNC(=N)N)NC(=O)CNC(=O)CNC(=O)[C@H](Cc2ccccc2)NC(=O)[C@@H](NC(=O)[C@H](CO)NC(=O)[C@H](CO)NC(=O)[C@H](CCCNC(=N)N)NC(=O)[C@H](CCCNC(=N)N)NC(=O)[C@H](CC(C)C)NC(=O)[C@@H](N)CO)CSSC[C@@H](C(=O)N[C@@H](CC(N)=O)C(=O)N[C@@H](CO)C(=O)N[C@@H](Cc2ccccc2)C(=O)N[C@@H](CCCNC(=N)N)C(=O)N[C@@H](Cc2ccc(O)cc2)C(=O)O)NC(=O)CNC(=O)[C@H](CC(C)C)NC(=O)CNC(=O)[C@H](CO)NC(=O)[C@H](CCC(N)=O)NC(=O)[C@H](C)NC(=O)CNC1=O` [SLRR(Met^8)AP-III], the figures for the amount remaining at 1 h, 40 μM in data set [2] (buffer or solvent) and in data set [2] (setting [6]) were 100% and 0%, respectively. In addition, in data set [1], the “Degradation of atrial peptide by proteolytic activity of renal brush border membranes” value is “degraded”.

Consider `CC[C@H](C)[C@@H]1NC(=O)[C@H](CCCN=C(N)N)NC(=O)[C@H](CC(=O)O)NC(=O)[C@H]([C@@H](C)CC)NC(=O)[C@H](CCCN=C(N)N)NC(=O)CNC(=O)CNC(=O)[C@H](Cc2ccccc2)NC(=O)[C@@H](NC(=O)[C@H](CO)NC(=O)[C@@H](N)CO)CSSC[C@@H](C(=O)N[C@@H](CC(N)=O)C(=O)N[C@@H](CO)C(=O)O)NC(=O)CNC(=O)[C@H](CC(C)C)NC(=O)CNC(=O)[C@H](CO)NC(=O)[C@H](CCC(N)=O)NC(=O)[C@H](C)NC(=O)CNC1=O` [AP-I] (H-SSCFGGRIDRIGAQSGLGCNS-OH; disulfide 3-19), for which the share remaining at 1 h, 40 μM in data set [2] (buffer or solvent) was found to be 100%. For the same compound, the “Degradation of atrial peptide by proteolytic activity of renal brush border membranes” value in data set [1] is recorded as “degraded”.

In turn, `CC[C@H](C)[C@@H]1NC(=O)[C@H](CCCN=C(N)N)NC(=O)[C@H](CC(=O)O)NC(=O)[C@H]([C@@H](C)CC)NC(=O)[C@H](CCCN=C(N)N)NC(=O)CNC(=O)CNC(=O)[C@H](Cc2ccccc2)NC(=O)[C@@H](NC(=O)[C@H](CO)NC(=O)[C@@H](N)CO)CSSC[C@@H](C(=O)N[C@@H](CC(N)=O)C(=O)N[C@@H](CO)C(=O)N[C@@H](Cc2ccccc2)C(=O)N[C@@H](CCCN=C(N)N)C(=O)N[C@@H](Cc2ccc(O)cc2)C(=O)O)NC(=O)CNC(=O)[C@H](CC(C)C)NC(=O)CNC(=O)[C@H](CO)NC(=O)[C@H](CCC(N)=O)NC(=O)[C@H](C)NC(=O)CNC1=O` [AP-III] (H-SSCFGGRIDRIGAQSGLGCNSFRY-OH; disulfide 3-19) showed a fraction remaining at 1 h, 40 μM in data set [2] (buffer or solvent) of 100%. The same compound came in with a fraction remaining at 1 h, 40 μM in data set [2] (setting [6]) of 3.3%. In addition, in data set [1] (rabbit, kidney or brush border membranes, 1 h, 40 μM, pH 7.5), the “Peak area as % Initial AP: AP” value was 2.1%. For the same compound, in data set [3] (833 ng/kg/min), the “Plasma AP-III concentration, stable level during infusion” value fell in the range of 9 to 11 ng/mL; the “Plasma AP-III levels, constant level in control rats” value lay within 11 to 12 ng/mL; the level at 20 min came out at 9.6 ± 1.6 ng/mL; the level at 0.5 h was found to be 10.8 ± 1.1 ng/mL. In addition, in data set [3] (833 ng/kg/min), the level at 40 min was determined as 11.2 ± 1.3 ng/mL, the level at 50 min was determined as 11.3 ± 1.1 ng/mL, the level at 1 h was 11.7 ± 0.7 ng/mL and the level at 1.5 h is 10.6 ± 1.4 ng/mL. Further, in data set [3] (1 mg/kg), the level at 20 min turned out to be 9.2 ± 2.4 ng/mL and the level at 0.5 h came to 9.7 ± 1 ng/mL. Further, in data set [3] (3 mg/kg), the level at 20 min worked out at 10.1 ± 1.6 ng/mL and the level at 0.5 h came to 11 ± 1.1 ng/mL. Besides, in data set [3] (10 mg/kg), the level at 20 min was determined as 9.7 ± 2.4 ng/mL and the level at 0.5 h was 10.6 ± 2.9 ng/mL. In data set [3] (30 mg/kg), this compound came in with a level at 20 min of 9.2 ± 1.1 ng/mL and a level at 0.5 h of 8.8 ± 1 ng/mL. In data set [4] (150 ng/kg/min), this compound came in with a level at 0.25 h of 0.9 ± 0.2 ng/mL and a level at 0.5 h of 1 ± 0.6 ng/mL. For the same compound, in data set [4] (450 ng/kg/min), the level at 0.25 h was determined as 4.2 ± 1 ng/mL and the level at 0.5 h was 4.5 ± 1.2 ng/mL. Further, in data set [4] (900 ng/kg/min), the level at 0.25 h worked out at 11.2 ± 3.5 ng/mL and the level at 0.5 h was found to be 13.6 ± 1.8 ng/mL.

Turning to `C[C@H](NC(=O)[C@H](CC(=O)NO)Cc1ccccc1)C(=O)O` [(S,S) kelatorphan], in data set [1] (setting [5]), the “Peak area as % Initial AP: AP” value is 17.2%, the “Peak area as % Initial AP: AP + des Ser^1 -AP” value came out at 49.3% and the “Peak area as % Initial AP: des Ser^1 -AP” value turned out to be 32.1%. Moreover, the “Effect of inhibitor” value in data set [1] is on record as “inhibit the loss of atrial peptide bioactivity”.
